Measured values reported in patent US12479830B2, “Homopiperazinyl and homopiperidinyl quinazolin-4(3H)-one derivatives having multimodal activity against pain” (ESTEVE PHARMACEUTICALS, S.A., priority 2019, dated 2025).

What was measured:
Human σ1 receptor = target: T1, Human σ1 receptor (Homo sapiens, UniProt Q99720); experiment: Human σ1 receptor radioligand assay ([3H](+)-pentazocine binding); conditions: binding to the σ1 receptor, expressed as Ki class; + also covers inhibition between 1% and 50%
T1 construct: expressed in transfected cells; host or cells: HEK-293
Outline: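 Ki was derived from five test concentrations, or % inhibition was measured at a single 1 or 10 μM dose, against 5 nM [3H](+)-pentazocine. Incubation was 120 min at 37° C in 50 mM Tris-HCl pH 8 with 7 μg HEK-293 membranes, and 10 μM haloperidol set non-specific binding. Bound radioactivity was counted after filtration.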

[1] = target: Human α2δ-1 subunit of Cav2.2 calcium channel (Homo sapiens, UniProt P54289); experiment: Human α2δ-1 subunit of Cav2.2 calcium channel assay ([3H]-gabapentin binding); conditions: binding to the α2δ-1 subunit of voltage-gated calcium channels, expressed as Ki class; + also covers inhibition between 1% and 50%
Outline: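 Affinity (Ki, five concentrations) or % inhibition at 1 or 10 μM, from displacement of 15 nM [3H]-gabapentin on human α2δ-1 membranes. Incubation 60 min, 27° C., Hepes-KOH 10 mM pH 7.4; 10 μM pregabalin defined non-specific binding; bound radioactivity counted after GF/C filtration.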

Chain of Human α2δ-1 subunit of Cav2.2 calcium channel (P54289 25-1103): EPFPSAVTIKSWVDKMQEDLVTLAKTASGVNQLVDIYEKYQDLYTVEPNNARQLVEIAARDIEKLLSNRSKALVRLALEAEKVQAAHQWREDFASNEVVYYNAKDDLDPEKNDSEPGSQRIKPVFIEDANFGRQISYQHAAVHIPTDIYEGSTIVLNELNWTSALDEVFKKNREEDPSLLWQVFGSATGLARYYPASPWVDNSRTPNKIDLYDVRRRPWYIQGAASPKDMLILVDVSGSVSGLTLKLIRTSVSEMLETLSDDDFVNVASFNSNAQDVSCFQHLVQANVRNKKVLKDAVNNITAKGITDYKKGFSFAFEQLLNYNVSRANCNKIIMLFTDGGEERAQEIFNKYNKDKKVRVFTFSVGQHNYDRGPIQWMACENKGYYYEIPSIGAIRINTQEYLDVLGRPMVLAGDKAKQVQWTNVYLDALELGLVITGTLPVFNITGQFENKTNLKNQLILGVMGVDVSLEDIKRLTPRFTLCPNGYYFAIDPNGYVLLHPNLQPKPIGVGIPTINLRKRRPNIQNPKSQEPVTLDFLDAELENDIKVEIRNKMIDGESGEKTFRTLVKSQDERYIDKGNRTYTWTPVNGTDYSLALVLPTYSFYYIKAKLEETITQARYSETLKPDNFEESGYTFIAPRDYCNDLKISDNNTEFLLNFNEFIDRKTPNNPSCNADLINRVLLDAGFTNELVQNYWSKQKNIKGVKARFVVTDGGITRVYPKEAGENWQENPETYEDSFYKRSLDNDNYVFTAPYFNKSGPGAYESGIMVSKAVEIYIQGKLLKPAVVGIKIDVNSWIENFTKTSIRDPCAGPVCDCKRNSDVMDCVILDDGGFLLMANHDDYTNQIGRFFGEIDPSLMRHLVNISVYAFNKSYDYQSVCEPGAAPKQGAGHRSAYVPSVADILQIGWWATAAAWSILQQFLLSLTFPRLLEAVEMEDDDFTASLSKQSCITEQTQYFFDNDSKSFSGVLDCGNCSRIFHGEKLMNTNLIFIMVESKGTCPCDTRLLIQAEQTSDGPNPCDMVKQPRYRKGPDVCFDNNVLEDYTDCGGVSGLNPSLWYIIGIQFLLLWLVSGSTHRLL
T1 sequence (Q99720 whole entry): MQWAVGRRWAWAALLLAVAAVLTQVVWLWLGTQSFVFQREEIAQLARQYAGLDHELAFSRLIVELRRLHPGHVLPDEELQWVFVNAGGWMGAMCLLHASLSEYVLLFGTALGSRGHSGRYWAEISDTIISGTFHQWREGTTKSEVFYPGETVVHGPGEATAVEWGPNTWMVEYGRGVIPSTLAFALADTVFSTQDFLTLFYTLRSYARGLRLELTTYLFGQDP

SMILES | Ki (Human σ1 receptor) [nM] | Ki [1] [nM]
CCC[C@H](c1nc2ccc(OC)cc2c(=O)n1CC)N1CCCN(C)CC1 [Example 15, (R)-3-ethyl-6-methoxy-2-(1-(4-methyl-1,4-diazepan-1-yl)butyl)quinazolin-4(3H)-one] | > 1000 | < 500
CCCC(c1nc2ccc(C)cc2c(=O)n1CC)N1CCCN(C)CC1 (stereo not shown) [Example 8, 3-ethyl-6-methyl-2-(1-(4-methyl-1,4-diazepan-1-yl)butyl)quinazolin-4(3H)-one] | > 1000 | < 500
CCC[C@@H](c1nc2cc(F)c(Cl)cc2c(=O)n1CC)N1CCN(C)C[C@@H](C)C1 [Example 138, 6-chloro-2-((S)-1-((R)-4,6-dimethyl-1,4-diazepan-1-yl)butyl)-3-ethyl-7-fluoroquinazolin-4 (3H)-one] | 500 to 1000 | > 5000
CCC[C@@H](c1nc2ccc(OC)cc2c(=O)n1CC)N1CCCN(C)CC1 [Example 16, (S)-3-ethyl-6-methoxy-2-(1-(4-methyl-1,4-diazepan-1-yl)butyl)quinazolin-4(3H)-one] | > 1000 | > 5000
CCCC(c1nc2cc(Br)c(F)cc2c(=O)n1CC)N1CCCN(C)CC1 (stereo not shown) [Example 33, 7-bromo-3-ethyl-6-fluoro-2-(1-(4-methyl-1,4-diazepan-1-yl)butyl)quinazolin-4(3H)-one] | < 500 | < 500
CCC[C@H](c1nc2ncc(Br)cc2c(=O)n1CC)N1CCNC[C@@H](C)C1 [Example 199, 6-bromo-3-ethyl-2-((R)-1-((R)-6-methyl-1,4-diazepan-1-yl)butyl)pyrido[2,3-d]pyrimidin-4(3H)-one] | > 1000 | < 500
CCCC(c1nc2ncccc2c(=O)n1CC)N1CCCNCC1 (stereo not shown) [Example 179, 2-(1-(1,4-diazepan-1-yl)butyl)-3-ethylpyrido[2,3-d]pyrimidin-4(3H)-one] | > 1000 | 500 to 5000
CCC[C@H](c1nc2ccc(F)cc2c(=O)n1Cc1ccoc1)N1CCCN(C)CC1 [Example 227] | < 500 | < 500
CCCC(c1nc2cc(C)c(Br)cc2c(=O)n1CC)N1CCCN(C)CC1 (stereo not shown) [Example 39, 6-bromo-3-ethyl-7-methyl-2-(1-(4-methyl-1,4-diazepan-1-yl)butyl)quinazolin-4(3H)-one] | 500 to 1000 | < 500
CCCC(c1nc2ncccc2c(=O)n1CC)N1CCCN(CC)CC1 (stereo not shown) [Example 178, 3-ethyl-2-(1-(4-ethyl-1,4-diazepan-1-yl)butyl)pyrido[2,3-d]pyrimidin-4(3H)-one] | > 1000 | < 500
CCCC(c1nc2ccc(Cl)cc2c(=O)n1CC)N1CCCN(C)CC1 (stereo not shown) [Example 19, 6-chloro-3-ethyl-2-(1-(4-methyl-1,4-diazepan-1-yl)butyl)quinazolin-4(3H)-one] | 500 to 1000 | < 500
CCCC(c1nc2cc(Br)c(F)cc2c(=O)n1CCC)N1CCCN(CC)CC1 (stereo not shown) [Example 62, 7-bromo-2-(1-(4-ethyl-1,4-diazepan-1-yl)butyl)-6-fluoro-3-propylquinazolin-4(3H)-one] | < 500 | < 500
CCCC(c1nc2ccc(C#N)cc2c(=O)n1CC)N1CCCN(C)CC1 (stereo not shown) [Example 10, 3-ethyl-2-(1-(4-methyl-1,4-diazepan-1-yl)butyl)-4-oxo-3,4-dihydroquinazoline-6-carbonitrile] | > 1000 | < 500
CCC[C@@H](c1nc2cc(F)c(Br)cc2c(=O)n1CC)N1CCCN(C)CC1 [Example 156, (S)-6-bromo-3-ethyl-7-fluoro-2-(1-(4-methyl-1,4-diazepan-1-yl)butyl)quinazolin-4(3H)-one] | 500 to 1000 | > 5000
CCCC(c1nc2ccc(Br)cc2c(=O)n1CCC)N1CCCN(C)CC1 (stereo not shown) [Example 18, 6-bromo-2-(1-(4-methyl-1,4-diazepan-1-yl)butyl)-3-propylquinazolin-4(3H)-one] | < 500 | < 500
CCCC(c1nc2ccc(Br)cc2c(=O)n1CC)N1CCCN(C)CC1 (stereo not shown) [Example 1, 6-Bromo-3-ethyl-2-(1-(4-methyl-1,4-diazepan-1-yl)butyl)quinazolin-4(3H)-one] | < 500 | < 500
CCC[C@@H](c1nc2cc(F)c(Cl)cc2c(=O)n1CC)N1CCNC[C@@H](C)C1 [Example 121, 6-chloro-3-ethyl-7-fluoro-2-((S)-1-((R)-6-methyl-1,4-diazepan-1-yl)butyl)quinazolin-4 (3H)-one] | > 1000 | > 5000
CCC[C@H](c1nc2ncc(Br)cc2c(=O)n1CC)N1CCN(C)C[C@@H](C)C1 [Example 186, 6-bromo-2-((R)-1-((R)-4,6-dimethyl-1,4-diazepan-1-yl)butyl)-3-ethylpyrido[2,3-d]pyrimidin-4(3H)-one] | > 1000 | < 500

SMILES | Ki (Human σ1 receptor) [nM] | Ki [1] [nM]
CCC[C@H](c1nc2cc(F)c(F)cc2c(=O)n1CC)N1CCN[C@@H](C)CC1 [Example 242, 3-ethyl-6,7-difluoro-2-((R)-1-((S)-5-methyl-1,4-diazepan-1-yl)butyl)quinazolin-4(3H)-one] | < 500 | < 500
CCC[C@@H](c1nc2ccc(F)cc2c(=O)n1CC)N1CCCN[C@@H](C)C1 [Example 144, 3-ethyl-6-fluoro-2-((S)-1-((S)-3-methyl-1,4-diazepan-1-yl)butyl)quinazolin-4(3H)-one] | > 1000 | > 5000
CCC[C@@H](c1nc2ccncc2c(=O)n1CC)N1CCCN(C)CC1 [Example 174, (S)-3-ethyl-2-(1-(4-methyl-1,4-diazepan-1-yl)butyl)pyrido[4,3-d]pyrimidin-4(3H)-one] | > 1000 | > 5000
CCCC(c1nc2ccc(F)cc2c(=O)n1CC(C)C)N1CCCN(CC)CC1 (stereo not shown) [Example 50, 2-(1-(4-ethyl-1,4-diazepan-1-yl)butyl)-6-fluoro-3-isobutylquinazolin-4(3H)-one] | < 500 | < 500
CCC[C@@H](c1nc2ncc(Br)cc2c(=O)n1CC)N1CCN(C)C[C@H](C)C1 [Example 188, 6-bromo-2-((S)-1-((S)-4,6-dimethyl-1,4-diazepan-1-yl)butyl)-3-ethylpyrido[2,3-d]pyrimidin-4(3H)-one] | > 1000 | > 5000
CCC[C@@H](c1nc2ncc(Br)cc2c(=O)n1CC)N1CCNC[C@@H](C)C1 [Example 198, 6-bromo-3-ethyl-2-((S)-1-((R)-6-methyl-1,4-diazepan-1-yl)butyl)pyrido[2,3-d]pyrimidin-4(3H)-one] | > 1000 | > 5000
CCCC(c1nc2ccc(Br)cc2c(=O)n1CC)N1CCCN(CCc2ccccc2)CC1 (stereo not shown) [Example 5, 6-bromo-3-ethyl-2-(1-(4-phenethyl-1,4-diazepan-1-yl)butyl)quinazolin-4(3H)-one] | < 500 | 500 to 5000
CCCC(c1nc2cccnc2c(=O)n1CC)N1CCCN(CC)CC1 (stereo not shown) [Example 88, 3-ethyl-2-(1-(4-ethyl-1,4-diazepan-1-yl)butyl)pyrido[3,2-d]pyrimidin-4(3H)-one] | > 1000 | > 5000
CCC[C@@H](c1nc2cc(F)c(Cl)cc2c(=O)n1CC)N1CCNC[C@H](C)C1 [Example 120, 6-chloro-3-ethyl-7-fluoro-2-((S)-1-((S)-6-methyl-1,4-diazepan-1-yl)butyl)quinazolin-4(3H)-one] | > 1000 | > 5000
CCC[C@H](c1nc2ccc(F)c(F)c2c(=O)n1CC)N1CCN[C@H](C)CC1 [Example 239, 3-ethyl-5,6-difluoro-2-((R)-1-((R)-5-methyl-1,4-diazepan-1-yl)butyl)quinazolin-4(3H)-one] | > 1000 | > 5000
CCC[C@@H](c1nc2ccc(Br)cc2c(=O)n1CC)N1CCCN(C)CC1 [Example 152, (S)-6-bromo-3-ethyl-2-(1-(4-methyl-1,4-diazepan-1-yl)butyl)quinazolin-4(3H)-one] | 500 to 1000 | > 5000
CCC[C@H](c1nc2ccc(F)c(F)c2c(=O)n1CC)N1CCN[C@@H](C)CC1 [Example 240, 3-ethyl-5,6-difluoro-2-((R)-1-((S)-5-methyl-1,4-diazepan-1-yl)butyl)quinazolin-4(3H)-one] | < 500 | < 500
CCC[C@H](c1nc2ncc(F)cc2c(=O)n1CC1CC1)N1CCN[C@@H](C)CC1 [Example 195, 3-(cyclopropylmethyl)-6-fluoro-2-((R)-1-((S)-5-methyl-1,4-diazepan-1-yl)butyl)pyrido[2,3-d]pyrimidin-4(3H)-one] | > 1000 | < 500
CCCC(c1nc2cc(Cl)c(Cl)cc2c(=O)n1CC)N1CCCN(C)CC1 (stereo not shown) [Example 87, 6,7-dichloro-3-ethyl-2-(1-(4-methyl-1,4-diazepan-1-yl)butyl)quinazolin-4(3H)-one] | < 500 | < 500
CCC[C@@H](c1nc2ccc(Br)cc2c(=O)n1CC)N1CCN[C@H](C)CC1 [Example 94, 6-bromo-3-ethyl-2-((S)-1-((R)-5-methyl-1,4-diazepan-1-yl)butyl)quinazolin-4(3H)-one] | > 1000 | 500 to 5000
CCC[C@H](c1nc2ccc(I)cc2c(=O)n1CC)N1CCCN(C)CC1 [Example 213, (R)-3-ethyl-6-iodo-2-(1-(4-methyl-1,4-diazepan-1-yl)butyl)quinazolin-4(3H)-one] | 500 to 1000 | < 500
CCCC(c1nc2ccc(Br)c(Cl)c2c(=O)n1CC)N1CCCN(C)CC1 (stereo not shown) [Example 56, 6-bromo-5-chloro-3-ethyl-2-(1-(4-methyl-1,4-diazepan-1-yl)butyl)quinazolin-4(3H)-one] | < 500 | 500 to 5000
